Assay results: patent US8623855B2, “Azetidinone compounds and medical use thereof” (Zhejiang Hisun Pharmaceutical Co., Ltd., priority 2009, dated 2014)
Like-named read-outs stand apart in the source and are kept apart here.

What was measured:
normal guinea pig = test: Effect on blood lipid level of normal guinea pigs; type: in vivo; details: for HDL after administration / LDL after administration / TC after administration / TG after administration: Table 13
[1] = tested on: hypercholesterolemia golden hamster model; test: In vivo pharmacodynamic screening in hypercholesterolemia model of golden hamster (plasma TC and LDL-C); details: for LDL-C after administration / TC after administration / LDL after administration: 1 week, plasma; for reduction of plasma TC and LDL-C levels (in words): significant statistical difference; for effect of lowering cholesterol (screening result in words): in vivo pharmacodynamic screening test, Ezetimibe as positive control; for efficacy compared with the positive control (in words): positive control Ezetimibe; for inhibition in vivo at 5 mg/kg: Table 12
Description: 1. Establishment of Hypercholesterolemia Model of Golden Hamster:
The animals were subjected to acclimation feeding for 1 week with free feeding and drinking under a lighting condition of 10 h/14 h. On Day 8, the animals were raised with high fat feed (consisting of 0.5% cholesterol, 20% palm oil, 79.5% basal feed) for 1 week. Then, each animal was anesthetized by ether. After weighing, 0.5 ml blood was obtained from orbital vein, anticoagulated with heparin and centrifuged at 5000 rpm for 10 min. The plasma was collected and the levels of plasma TC (total cholesterol) and LDL-C (low density lipoprotein cholesterol) were determined by automatic biochemical analyzer. Animals with plasma TC of 9-15 mmol/L were selected as model animals (refer to the following reference for the method of animal modeling: Burrier, R. E., Smith, A. A., Mcgregor, D. G, Hoos, L. M., Zilli, D. L., Davis, H. R. The effect of acyl CoA: cholesterol acyltransferase inhibition on the uptake, esterification and secretion of cholesterol by the hamster small intestine. J. Pharm. Exp. Ther., 1995, 272, 156-163).
The animals were grouped according to TC and LDL-C levels and weight with 6 animals per group. Ezetimibe was used as positive control. The animals were intragastrically administered at a volume of 5 ml/kg for 1 week. Each animal was anesthetized by ether. After weighing, 0.5 ml blood was taken from orbital vein, anticoagulated with heparin, and centrifuged at 5000 rpm for 10 min. The plasma was collected and plasma TC (total cholesterol) and LDL-C (low density lipoprotein cholesterol) levels were determined by automatic biochemical analyzer to evaluate the efficacy of the compounds.

[2] = Mesocricetus auratus, po, 168 h, Table 2, read-out: Reducing LDL-C %
[3] = Mesocricetus auratus, po, 168 h, Table 2, read-out: Reducing TC %
[4] = Table 1, 0.4 mg/kg intragastric
[5] = Table 1, baseline of group dosed 0.4 mg/kg
[6] = Table 1, baseline of group dosed 2 mg/kg
[7] = Table 1, baseline of group dosed 10 mg/kg
[8] = golden hamster hypercholesterolemic model
[9] = Table 11, 10 mg/kg intragastric
[10] = Table 11, baseline of group dosed 10 mg/kg

## O=C1[C@H](C/C=C(\CO)c2ccc(F)cc2)[C@@H](c2ccc(O)cc2)N1c1ccc(F)cc1 [I-1(Z), (3R,4S)-1-(4-fluorophenyl)-3-[(Z)-3-(4-fluorophenyl)-4-hydroxy-but-2-enyl]-4-(4-hydroxyphenyl)azetidin-2-one]
Normal guinea pig; 0.1 mg/kg
  HDL after administration: 0.47 mmol/L
  LDL after administration: 1.73 mmol/L
  TC after administration: 1.77 ± 0.43 mmol/L
  TG after administration: 0.38 ± 0.05 mmol/L
Normal guinea pig; 0.5 mg/kg
  HDL after administration: 0.4 mmol/L
  LDL after administration: 1.75 mmol/L
  TC after administration: 1.9 ± 0.2 mmol/L
  TG after administration: 0.44 ± 0.06 mmol/L
Normal guinea pig; 2.5 mg/kg
  HDL after administration: 0.47 mmol/L
  LDL after administration: 0.86 mmol/L
  TC after administration: 1.17 ± 0.25 mmol/L
  TG after administration: 0.31 ± 0.12 mmol/L
Normal guinea pig; normal guinea pigs
  reduction of plasma TC and LDL-C levels (in words): can significantly reduce the plasma TC and LDL-C levels
Normal guinea pig; normal guinea pigs, same dose
  effect compared with positive control Ezetimibe at the same dose (in words): the same as that of the positive control
[1]; [2]
  inhibition in vivo at 0.4 mg/kg: 32.7%
  inhibition in vivo at 2 mg/kg: 72.4%
  inhibition in vivo at 10 mg/kg: 83.1%
[1]; [3]
  inhibition in vivo at 0.4 mg/kg: 33.7%
  inhibition in vivo at 2 mg/kg: 49.7%
  inhibition in vivo at 10 mg/kg: 55.9%
[1]; Mesocricetus auratus, po, 168 h, Table 4, 1 mg/kg, read-out: Reducing TC %
  inhibition in vivo at 1 mg/kg: 57.5%
[1]; Mesocricetus auratus, po, 168 h, Table 4, 4 mg/kg, read-out: Reducing TC %
  inhibition in vivo at 4 mg/kg: 67.9%
[1]; [4]
  LDL-C after administration: 1.52 ± 0.31 mmol/L
  TC after administration: 6.46 ± 0.58 mmol/L
[1]; Table 1, 2 mg/kg intragastric
  LDL-C after administration: 0.71 ± 0.49 mmol/L
  TC after administration: 4.9 ± 0.62 mmol/L
[1]; Table 1, 10 mg/kg intragastric
  LDL-C after administration: 0.42 ± 0.2 mmol/L
  TC after administration: 4.3 ± 0.85 mmol/L
[1]; [5]
  LDL-C before administration: 2.26 ± 0.65 mmol/L
[1]; [6]
  LDL-C before administration: 2.57 ± 0.47 mmol/L
[1]; [7]
  LDL-C before administration: 2.48 ± 0.67 mmol/L
[1]; Table 3, 1 mg/kg intragastric
  LDL after administration: 1.19 ± 0.16 mmol/L
  TC after administration: 5.79 ± 0.99 mmol/L
[1]; Table 3, 4 mg/kg intragastric
  LDL after administration: 0.99 ± 0.28 mmol/L
  TC after administration: 4.37 ± 0.59 mmol/L
[1]; Table 4, 1 mg/kg
  Reducing LDL %: 35.7%
[1]; Table 4, 4 mg/kg
  Reducing LDL %: 46.2%
[1]; golden hamster hypercholesterolemic model, same dose
  effect compared with positive control Ezetimibe at the same dose (in words): the same as that of the positive control
[1]; [8]
  reduction of plasma TC and LDL-C levels (in words): can significantly reduce the plasma TC and LDL-C levels
[1]
  effect of lowering cholesterol (screening result in words): have the effect of lowering cholesterol
  efficacy compared with the positive control (in words): more similar to the positive control

## O=C1[C@H](C/C=C(/CO)c2ccc(F)cc2)[C@@H](c2ccc(O)cc2)N1c1ccc(F)cc1 [I-1(E), (3R,4S)-1-(4-fluorophenyl)-3-[(E)-3-(4-fluorophenyl)-4-hydroxy-but-2-enyl]-4-(4-hydroxyphenyl)azetidin-2-one]
[1]; [2]
  inhibition in vivo at 0.4 mg/kg: -16.4%
  inhibition in vivo at 2 mg/kg: 0%
  inhibition in vivo at 10 mg/kg: 30.7%
[1]; [3]
  inhibition in vivo at 0.4 mg/kg: -26.1%
  inhibition in vivo at 2 mg/kg: -20.9%
  inhibition in vivo at 10 mg/kg: 11.7%
[1]; [4]
  LDL-C after administration: 2.84 ± 0.59 mmol/L
  TC after administration: 12.42 ± 1.4 mmol/L
[1]; Table 1, 2 mg/kg intragastric
  LDL-C after administration: 2.21 ± 0.37 mmol/L
  TC after administration: 11.19 ± 0.69 mmol/L
[1]; Table 1, 10 mg/kg intragastric
  LDL-C after administration: 1.74 ± 0.62 mmol/L
  TC after administration: 8.7 ± 0.93 mmol/L
[1]; [5]
  LDL-C before administration: 2.44 ± 0.46 mmol/L
[1]; [6]
  LDL-C before administration: 2.21 ± 0.47 mmol/L
[1]; [7]
  LDL-C before administration: 2.51 ± 0.91 mmol/L
[1]; [8]
  reduction of plasma TC and LDL-C relative to the amount reduced by Ezetimibe and I-1 (Z): less than 50%
  reduction of plasma TC and LDL-C levels (in words): can also lower plasma TC and LDL-C levels
[1]
  effect of lowering cholesterol (screening result in words): certain effect on cholesterol-lowering

## COc1ccc([C@@H]2[C@@H](C/C=C(\CO)c3ccc(F)cc3)C(=O)N2c2ccc(F)cc2)cc1 [I-2(Z)]
[1]; Mesocricetus auratus, po, 168 h, read-out: Reducing LDL-C %
  inhibition in vivo at 5 mg/kg: 63.4%
[1]; Mesocricetus auratus, po, 168 h, read-out: Reducing TC %
  inhibition in vivo at 5 mg/kg: 62.2%
[1]; [9]
  LDL-C after administration: 1.01
  TC after administration: 4.82
[1]; [10]
  LDL-C before administration: 2.76 ± 0.43
  TC before administration: 12.74 ± 1.32
[1]; [8]
  reduction of plasma TC and LDL-C levels (in words): can significantly reduce the plasma TC and LDL-C levels
[1]
  effect of lowering cholesterol (screening result in words): have the effect of lowering cholesterol
  efficacy compared with the positive control (in words): more similar to the positive control

## CC(=O)OC/C(=C\C[C@H]1C(=O)N(c2ccc(F)cc2)[C@@H]1c1ccc(O)cc1)c1ccc(F)cc1 [I-12(Z), (3R,4S)-3-[(Z)-4-acetoxy-3-(4-fluorophenyl)-but-2-enyl]-1-(4-fluorophenyl)-4-(4-hydroxyphenyl)azetidin-2-one]
[1]; Mesocricetus auratus, po, 168 h, Table 6, 1 mg/kg, read-out: Reducing LDL-C %
  inhibition in vivo at 1 mg/kg: 62.8%
[1]; Mesocricetus auratus, po, 168 h, Table 6, 1 mg/kg, read-out: Reducing TC %
  inhibition in vivo at 1 mg/kg: 50.9%
[1]; Mesocricetus auratus, po, 168 h, Table 6, read-out: Reducing LDL-C %
  inhibition in vivo at 10 mg/kg: 71.5%
[1]; Mesocricetus auratus, po, 168 h, Table 6, read-out: Reducing TC %
  inhibition in vivo at 10 mg/kg: 54.8%
[1]; Table 5, 1 mg/kg intragastric
  LDL after administration: 1.58 mmol/L
  TC after administration: 5.29 mmol/L
[1]; Table 5, 10 mg/kg intragastric
  LDL after administration: 1.34 mmol/L
  TC after administration: 4.86 mmol/L
[1]; [8]
  reduction of plasma TC and LDL-C levels (in words): can significantly reduce the plasma TC and LDL-C levels
[1]
  effect of lowering cholesterol (screening result in words): have the effect of lowering cholesterol

## O=C(Oc1ccc([C@@H]2[C@@H](C/C=C(\CO)c3ccc(F)cc3)C(=O)N2c2ccc(F)cc2)cc1)c1ccccc1 [I-5(Z), (3R,4S)-4-(4-benzoyloxyphenyl)-1-(4-fluorophenyl)-3-[(Z)-3-(4-fluorophenyl)-4-hydroxy-but-2-enyl]azetidin-2-one]
[1]; Mesocricetus auratus, po, 168 h, Table 10, 1 mg/kg, read-out: Reducing LDL-C %
  inhibition in vivo at 1 mg/kg: 30.7%
[1]; Mesocricetus auratus, po, 168 h, Table 10, 1 mg/kg, read-out: Reducing TC %
  inhibition in vivo at 1 mg/kg: 31.2%
[1]; Mesocricetus auratus, po, 168 h, Table 10, read-out: Reducing LDL-C %
  inhibition in vivo at 10 mg/kg: 68.1%
[1]; Mesocricetus auratus, po, 168 h, Table 10, read-out: Reducing TC %
  inhibition in vivo at 10 mg/kg: 62.7%
[1]; Table 9, 1 mg/kg intragastric
  LDL after administration: 2.18 mmol/L
  TC after administration: 10.55 mmol/L
[1]; Table 9, 10 mg/kg intragastric
  LDL after administration: 1.0 mmol/L
  TC after administration: 5.73 mmol/L
[1]; [8]
  reduction of plasma TC and LDL-C levels (in words): can significantly reduce the plasma TC and LDL-C levels
[1]
  effect of lowering cholesterol (screening result in words): have the effect of lowering cholesterol
